Test results published in patent US5863893A, “Factor VIIa inhibitors from kunitz domain proteins” (Genentech, Inc., priority 1995, dated 1999).

Assays:
rabbit plasma = assay: PT clotting time in rabbit plasma; assay type: biochemical; details: 40 μM, rabbit thromboplastin diluted two-fold
Method: Samples of rabbit plasma were assayed using an MLA 800 coagulometer and Dade reagents. Actin FS® was the activator in the APTT assay. Rabbit Thromboplastin with Ca++ was used for the PT assays; the rabbit thromboplastin was diluted two-fold. All mutant inhibitors tested prolonged clotting by at least one fold. […] A greater than 10 fold prolongation of the clotting time at 40 μM was observed.

[1] = test system: New Zealand white rabbits; assay: Rabbit deep medial injury model (carotid artery patency and thrombus weight); assay type: in vivo; details: for Clot (mgs): mean ±sem
Method: Male New Zealand white rabbits (~4 kg) were anesthetized to surgical anesthesia plane with an IM injection of Ketamine/Xylaxine. The rabbits were placed supine on a restraining board, warmed to 37° C., and the neck and inner thigh area shaved. Teflon catheters were replaced in a marginal ear vein and femoral artery for drug delivery and sample collection respectively. Prior to treatment, blood samples were collected for coagulation tests (APTT and PT). Bleeding time was assessed from a cut made in the cuticle portion of a hind limb nail. Incisions were made in the neck region and the entire left common carotid artery and its branches were surgically isolated. An ultrasonic flow probe (Transonics®) was placed on the common carotid approximately 5 cm caudal to the common-internal bifurcation. After blood flow reached a stable baseline, drugs (saline or test compounds) were delivered via the marginal ear vein. A deflated embolectomy catheter (Fogarty®, 3F) was then introduced into the lumen of the common via an incision in the lingual branch. Blood flow through the artery was stopped briefly while the catheter was introduced and loosely secured with 2-0 silk tie at the incision site. After the catheter was in place and secure, blood flow was restored. The deflated balloon was advanced to within 2 mm of the flow probe and inflated with saline until resistance of the vessel wall was felt. The catheter was pulled back with a steady motion to the first branch and then deflated. This procedure was repeated a total of six times for each experimental animal, after which the catheter was removed. […] Over 40 minutes, blood samples were taken for APTT and PT measurements, cuticle bleeding times were assessed and blood flow through the carotid monitored. Duration of patency was defined as the total amount of time (maximum=40 minutes) that any measurable blood flow is detected in the artery. Patency rate refers to the percentage of animals tested who had carotid artery blood flow ≥5 minutes. At the end of the experiment the rabbit was euthanized and the carotid artery removed and opened. If any thrombus was present, it was removed, blotted and the weight recorded.
[Heparin was dosed as a 25 u/kg bolus followed by a continuous infusion of 1) 0.5 u/kg/min or 2) 1 u/kg/min. Other reagents were given as a 2 mg/kg IV bolus. With the exception of the patency data, values are expressed as means ±sem.]

normal human plasma = assay: Activated partial thromboplastin time (APTT) assay; assay type: biochemical
Method: For the activated partial thromboplastin time (APTT) assays, the activation time was set at 120 sec and acquisition time at 300 to 600 sec depending on the expected outcome of the assay. Citrated normal human plasma and inhibitor were incubated together. The sample (plasma and inhibitor) and activator (Instrumentation Laboratories Ellagic acid/Phospholipid mix Test Reagent) were automatically pipetted and incubated together for 2 min at 37° C., then CaCl2 was added and clotting time determined by means of optical assessment. The total incubation time of inhibitor with plasma was ca. 3 min before addition of activator, and 5 min before addition of CaCl2.

TF-induced coagulation = details: cited from earlier work
TF-FVIIa = TF-FVIIa (Homo sapiens, UniProt P08709); details: read-out: Ki, competitive inhibition of TF-FVIIa activity; cited from earlier work
[2] = 25 u/kg bolus then continuous infusion 0.5 u/kg/min
[3] = 25 u/kg bolus then continuous infusion 1 u/kg/min

Sequence of TF-FVIIa (P08709 213-466 limits assumed): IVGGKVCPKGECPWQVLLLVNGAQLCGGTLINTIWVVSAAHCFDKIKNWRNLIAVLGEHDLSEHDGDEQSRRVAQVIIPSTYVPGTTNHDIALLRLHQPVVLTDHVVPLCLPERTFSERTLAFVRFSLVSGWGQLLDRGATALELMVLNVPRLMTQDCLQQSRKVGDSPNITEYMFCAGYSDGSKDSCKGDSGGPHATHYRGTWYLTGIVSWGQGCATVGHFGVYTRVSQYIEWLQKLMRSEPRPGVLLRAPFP
Sequence of TF-FVIIa (P08709 61-212 limits assumed): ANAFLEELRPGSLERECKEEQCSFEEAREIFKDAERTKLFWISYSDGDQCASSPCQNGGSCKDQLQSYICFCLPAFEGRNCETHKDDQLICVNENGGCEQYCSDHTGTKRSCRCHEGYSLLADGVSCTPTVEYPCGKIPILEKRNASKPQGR
Sequence of TF-FVIIa (P13726 33-295 partner): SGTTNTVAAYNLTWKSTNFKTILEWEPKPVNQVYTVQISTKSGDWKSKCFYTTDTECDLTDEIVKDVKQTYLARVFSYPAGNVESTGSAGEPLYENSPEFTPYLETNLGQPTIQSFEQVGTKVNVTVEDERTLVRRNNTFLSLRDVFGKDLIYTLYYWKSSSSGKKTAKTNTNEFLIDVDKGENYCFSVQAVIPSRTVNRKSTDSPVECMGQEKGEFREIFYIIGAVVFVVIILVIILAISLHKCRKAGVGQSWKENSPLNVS

Q: Which “PT, fold increase over baseline” value (rabbit plasma) does the source give for “Alzheimer's amyloid β-protein precursor inhibitor (VREVCSEQAETGPCRAMISRWYFDVTEGKCAPFFYGGCGGNRNNFDTEEYCMAVCGSA) [APPI]” here?
A: Its value is 1.4 fold.

Q: And the “Patency (%)” value ([1]; 2 mg/kg IV bolus, animals with carotid artery blood flow ≥5 minutes)?
A: Its value is 40%.

Q: What about the “Clot (mgs)” value ([1]; 2 mg/kg IV bolus, thrombus weight) of the same substance?
A: Its value is 49.5 ± 18.2 mgs.

Q: What about the “APTT clotting time, fold prolongation” value (normal human plasma; 40 μM inhibitor, uninhibited clotting time 31 s) of the same substance?
A: Its value is 3.6 fold.

Q: And the “APTT clotting time, fold prolongation” value (normal human plasma; ca. 7 μM inhibitor)?
A: Its value is “ca. 3 fold”.

Q: For “Bovine pancreatic trypsin inhibitor [BPTI]”, which “concentration needed to prolong the clotting time 1.4-fold in a PT assay” value (TF-induced coagulation) is on record?
A: The value was “ca. 75 pM”.

Q: And the Ki (TF-FVIIa)?
A: The Ki was 30 µM.

Q: For Heparin, which “Patency (%)” value [1, 2] is on record?
A: The value was 67%.

Q: What about the “Clot (mgs)” value [1, 2] of the same substance?
A: Its value is 13.6 ± 4.7 mgs.

Q: And the “Patency (%)” value [1, 3]?
A: The value was 100%.

Q: What about the “Clot (mgs)” value [1, 3] of the same substance?
A: Its value is 19.1 ± 8.5 mgs.

Q: And the “patency and clot size compared to the saline control (in words)” value ([1]; doses as in Table III)?
A: The value was “significantly prolonged patency and reduced clot size”.
